{"source": "patent US9567306B2", "about": "“Inhibition of macrophage migration inhibitory factor in melanoma and colon cancer” (THE FEINSTEIN INSTITUTE FOR MEDICAL RESEARCH, priority 2014, dated 2017)", "key": {"CT-26 colon tumors": {"test_system": "CT-26 colon tumors", "conditions": "administered twice per week (He et al.); cited from earlier work"}, "B16 tumor": {"test_system": "B16 tumor", "conditions": "80 mg/kg (Yaddanapudi et al.); cited from earlier work"}, "Solubility comparison": {"test": "Solubility comparison", "type": "physicochemical", "conditions": "relative to ISO-66"}, "[1]": {"test": "Stability in buffer (decarboxylation, mass spectrometry)", "type": "physicochemical", "conditions": "upon formulation in buffer; by mass spectrometry"}, "MIF": {"biological_target": "T1, MIF (Homo sapiens, UniProt P14174)", "T1 sequence (P14174 2-115 limits assumed)": "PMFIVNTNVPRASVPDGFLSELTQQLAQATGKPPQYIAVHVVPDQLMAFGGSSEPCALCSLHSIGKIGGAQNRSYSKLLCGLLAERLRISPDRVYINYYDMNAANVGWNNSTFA", "test": "MIF tautomerase inhibition assay (L-dopachrome methyl ester)", "type": "biochemical", "method": "MIF tautomerase inhibition assay: MIF tautomerase activity was measured using a UV-Visible spectrophotometer (SHIMADZU, UV1600U). A fresh stock solution of L-dopachrome methyl ester was prepared at 2.4 mM through oxidation of L-3,4-dihydroxyphenylalanine methyl ester with sodium periodate. 1 μL of MIF solution (800-900 μg/mL) and 1 μL of a dimethyl sulfoxide (DMSO) solution with various concentrations of the MIF inhibitor were added into a plastic cuvette (10 mm, 1.5 mL) containing 0.7 mL assay buffer (50 mM potassium phosphate, pH 7.2). Then, activated L-dopachrome methyl ester solution (0.3 mL) was added to the assay buffer mixture. Activity was determined at room temperature and spectrometric measurements were made every 5 sec at λ, =475 nm for total 20 sec, by monitoring the rate of decolorization of L-dopachrome in comparison to a standard solution."}}, "note": "“Also recorded” adds a separate entry of the source.", "data": [{"compound": "COC(=O)CC1CC(c2ccc(O)cc2)=NO1", "note": "(centres unmarked) [ISO-1]", "values": [{"measurement": "inhibition of CT-26 colon tumors", "setting": "CT-26 colon tumors", "result": 25, "unit": "%"}]}, {"compound": "Ic1cc(-c2ccccc2)ncn1", "note": "[4-IPP]", "values": [{"measurement": "effect on rate of B16 tumor growth", "setting": "B16 tumor", "result": "significantly slowed the rate of B16 tumor growth"}]}, {"compound": "O=C(O)CC(=O)CC1CC(c2ccc(O)c(F)c2)=NO1", "note": "(centres unmarked) [KF III 53Y]", "values": [{"measurement": "solubility", "setting": "Solubility comparison", "result": "better solubility than ISO-66"}, {"measurement": "stability (decarboxylation to ISO-66)", "setting": "[1]", "result": "spontaneously decarboxylates to form ISO-66; also recorded: undergoes fast decarboxlyation to form ISO-66; also recorded: spontaneously decarboxylated non-enzymatically"}, {"measurement": "IC50", "setting": "MIF", "result": 1800, "unit": "nM"}]}]}
